Data reported in PMC4259358, “Functional Characterization of Nuclear Localization and Export Signals in Hepatitis C Virus Proteins and Their Role in the Membranous Web” (PLoS ONE, 2014).

Key:
[1] = test system: interaction of core, NS3, or NS5A with IPO5; experiment: Peptide competition of HCV protein-NTF interaction (ELISA in-vitro, Co-IP in cell culture); type: biochemical; conditions: ELISA with 100 µM peptide and Co-IP of V5 tagged HCV proteins; n = 3
Protocol: (§1) To examine the specificity of the interactions between HCV proteins and NTFs, we examined the ability of each putative NLS or NES peptide identified in Fig. 1 to disrupt the interaction between the HCV protein and the NTF, using an ELISA in-vitro and co-immunoprecipitation (Co-IP) in cell culture assays (Fig. 3, S3 and S4 Figure). The ELISA plates were coated with HCV proteins while NTFs and competitive peptides were added, and the fraction of bound NTF was measured using NTF specific antibodies. The Co-IP was conducted by expression of V5 tagged HCV proteins in the presence of competing peptides, followed by immunoprecipitation with V5 specific antibody and immunoblotting with specific NTF antibodies.
(§2) Figure 3 Analysis of HCV protein binding to NTFs in the presence of NLS and NES peptides. ELISA plates were coated with HCV proteins and the relative binding of the different NTFs was monitored by ELISA in the presence of 100 µM of the indicated peptide. For the Co-IP study, cells were transfected by plasmid encoding to V5 tagged HCV proteins and treated by the indicated peptides. After 48 h, cells were lysed and Co-IP using anti V5 antibody and blotted to enable detection of the different NTFs. Western blots were quantified using Multi Gauge v. 3.0. […] The y-axis represents the percentage of NTF bound to the HCV protein; the interaction without the peptide is set to 100%. Error bars represent ± standard deviation, n = 3. The significant difference between the untreated (no peptide) and peptide treated is indicated by: * p<0.05, ** p<0.01, *** p<0.001, **** p<0.0001.
(§3) Protein-peptide and protein-protein binding were estimated using an ELISA-based binding assay as described previously. Briefly, ELISA plates were coated with 200 µl of a 10 µg/ml of synthetic peptide or recombinant protein in a carbonate buffer (0.05 M Na2CO3/0.05 M NaHCO3, pH 9.6) overnight at 4°C. After incubation, the solution was removed, and the plates were washed three times with PBS. […] Each measurement was performed in duplicate.

[2] = test system: interaction of core, NS2, or NS3 with IPOA5; experiment: as above; type: biochemical; conditions: ELISA with 100 µM peptide and Co-IP of V5 tagged HCV proteins; n = 3
Protocol: as §1, §2, §3

[3] = test system: core- and NS2-XPO1 interactions; experiment: as above; type: biochemical; conditions: plates coated with HCV protein, 100 µM peptide, n = 3
Protocol: as §1, §2, §3

JFH-1 HCV [4] = type: cell-based, Hepatitis C virus
Protocol: Huh7.5 cells were infected with JFH-1 HCV and maintained at 4°C for 4 hours (h) to synchronize the cells before shifting the temperature to 37°C. Post temperature shift (PTS), infected cells were incubated for various lengths of times prior to the addition of peptides or known inhibitors of HCV at 2 h intervals. […] We deliberately selected the final time point of 72 h PTS to reflect the number of cells infected by a second round of infection. […] This would be reflected by the number of cells infected in the second round as measured at 72 h PTS.
In order to elucidate the time points in infection when the nuclear transport signals bearing peptides are functional, cells were synchronously infected and treated with the indicated peptides. Each time point (2 h intervals) represents a culture treated with the indicated reagent at the specified time post temperature shift (PTS) and initiation of HCV infection. […] (A) Known inhibitors of HCV production (Ezetimibe (30 µM), LMB (18 nM), BMS-986094 (10 nM) and DGAT 1 inhibitor (10 nM)) and control (Pen peptide 100 µM, DMSO 2%, no treatment, and no infection) were examined. […] Error bars represent ± standard deviation, n = 3.
For the time of addition experiments, cells were seeded at a density of 6.25×10^4 cells/well in a 96-well plate and infected with 0.1 genomic equivalents of serially passaged JFH-1 virus on ice: cells then were incubated at 4°C for 4 h.
Briefly, Huh7.5 cells were infected as described above and the test compounds were added to different wells at different time points before the temperature shift (-4 h and -2 h) and every 2 h after the temperature shift (0, 2, 4,…, 48 h). […] The infection levels were calculated by counting infected and total cells numbers in ten random fields for each condition. The non-treated cell infection level was normalized to 100% and all other infections were calculated based on that normalization.

IPOA5 = target: T1, IPOA5 (Homo sapiens, UniProt P52294); experiment: biochemical; type: binding; conditions: ELISA, immobilized peptide or HCV protein
T1 construct: Expression and purification of full length IPOA5, IPO5 were perform according to methods described previously; His tag; made in house; host or cells: Escherichia coli BL21(DE3), pET21 vector

HEK293T cells = experiment: Localization of nuclear transport signal-double GFP reporter in HEK293T cells; type: cell-based; set-up: key: +++ for strong; ++ for moderate; + for weak; − for no localization; conditions: double GFP cargo, 24 h post transfection, fluorescence quantified with ImageJ (S6, S7 Figures); NES/SEN on SV40 NLS double GFP
Source text: To determine whether NTF binding sites found in the HCV proteins were functional nuclear transport signals, we constructed reporter proteins each consisting of one of the HCV proteins NTF binding sites followed by two C-terminal, tandemly repeated GFP molecules. The double GFP moieties were required to keep the reporter from entering the nucleus, since a single GFP is small enough to diffuse freely through NPCs, [35]. As controls, constructs containing the reversed amino-acid residue sequence of the potential NLS (SLN) were also examined using the double GFP reporter assay (S5 Figure). These SLN reporters were predicted to not accumulate in the nucleoplasm. In addition, reporters to examine the functionality of the potential XPO1 binding domains were also constructed. These reporters consist of an SV40 NLS and a double GFP molecule followed by one of the various potential NESs at the C-terminus (S5 Figure). In the absence of a functional NES, this reporter will accumulate in the nucleus. However, a functional NES is predicted to export the reporter, leading to increased steady-state levels of the reporter in the cytoplasm.
Figure 4 Functionality of the putative nuclear transport signals in cells. Cells were transfected by the vectors encoding a nuclear transport reporter consisting of a tandemly repeated double GFP fused to the indicated C-terminal nuclear transport signal (panels A-N). At 24 h following transfection, cells were fixed and stained with Hoechst to visualize the nucleus. Cells were examined using a Zeiss inverted Axiovert 200 M microscope to assess the localization of the GFP (green) and its relationship to the nucleus (blue). A hashed yellow square demarcates the magnified area shown in the right-most image of each panel. Fluorescent intensity was quantified using ImageJ v. […] Analysis of the reverse sequences of each transport signal as well as the mutant SV40 NLS was also performed and the results are shown in S7 Figure.
Nuclear transport signals-double GFP constructs were transfected into HEK293T cells using lipofectamine 2000. At 24 h post transfection cells were fixed, stained, and visualized for localization of the GFP. For detailed information see S1 Methods.
Nuclear transport signal-double GFP constructs were transfected into HEK293T cells using lipofectamine 2000 reagent (Invitrogen, 11668019). At 24 h post transfection cells were fixed with 3.76% formaldehyde at room temperature (Sigma, F8775-500ML) for 8 min then permeabilized in 0.2% Triton X-100 (VWR, CA97062-208) for 2 min. Cells were washed three times with X1 PBS and were stained with Hoechst 1:5000 in X1 PBS for 5 min followed by three washes with X1 PBS. The cells were visualized using a Zeiss inverted Axiovert 200M microscope with a 20x/0.8 objective lens to examine localization of the GFP. At least ten random fields of cells were imaged for each combination. Channels were merged using ImageJ software (National Institutes of Health). Photoshop Elements 10 (Adobe) software was used to adjust brightness and contrast levels for individual images and to assemble images into figures.

JFH-1 HCV [5] = conditions: literature value; cited from earlier work
Protocol: Ezetimibe is known to inhibit a late stage of HCV entry, and it lost its ability to inhibit HCV infection when added 4–10 h PTS, thus defining the last phase of entry (Fig. 6A). […] In our study, the inhibitory effect of LMB was lost 10–14 hours PTS (Fig. 6A). BMS-986094, an inhibitor of NS5B polymerase, lost its ability to inhibit HCV infection when added 10–24 h PTS, thus defining the period of viral RNA synthesis (Fig. 6A). The ...

XPO1 = target: T2, XPO1 (Homo sapiens, UniProt O14980); experiment: ELISA-based binding assay (Kd(app))
T2 construct: Expression and purification of full length XPO1 were perform according to methods described in a previous publication; His tag; made in house; host or cells: Escherichia coli BL21(DE3), pET21 vector
T2 sequence (O14980 whole entry): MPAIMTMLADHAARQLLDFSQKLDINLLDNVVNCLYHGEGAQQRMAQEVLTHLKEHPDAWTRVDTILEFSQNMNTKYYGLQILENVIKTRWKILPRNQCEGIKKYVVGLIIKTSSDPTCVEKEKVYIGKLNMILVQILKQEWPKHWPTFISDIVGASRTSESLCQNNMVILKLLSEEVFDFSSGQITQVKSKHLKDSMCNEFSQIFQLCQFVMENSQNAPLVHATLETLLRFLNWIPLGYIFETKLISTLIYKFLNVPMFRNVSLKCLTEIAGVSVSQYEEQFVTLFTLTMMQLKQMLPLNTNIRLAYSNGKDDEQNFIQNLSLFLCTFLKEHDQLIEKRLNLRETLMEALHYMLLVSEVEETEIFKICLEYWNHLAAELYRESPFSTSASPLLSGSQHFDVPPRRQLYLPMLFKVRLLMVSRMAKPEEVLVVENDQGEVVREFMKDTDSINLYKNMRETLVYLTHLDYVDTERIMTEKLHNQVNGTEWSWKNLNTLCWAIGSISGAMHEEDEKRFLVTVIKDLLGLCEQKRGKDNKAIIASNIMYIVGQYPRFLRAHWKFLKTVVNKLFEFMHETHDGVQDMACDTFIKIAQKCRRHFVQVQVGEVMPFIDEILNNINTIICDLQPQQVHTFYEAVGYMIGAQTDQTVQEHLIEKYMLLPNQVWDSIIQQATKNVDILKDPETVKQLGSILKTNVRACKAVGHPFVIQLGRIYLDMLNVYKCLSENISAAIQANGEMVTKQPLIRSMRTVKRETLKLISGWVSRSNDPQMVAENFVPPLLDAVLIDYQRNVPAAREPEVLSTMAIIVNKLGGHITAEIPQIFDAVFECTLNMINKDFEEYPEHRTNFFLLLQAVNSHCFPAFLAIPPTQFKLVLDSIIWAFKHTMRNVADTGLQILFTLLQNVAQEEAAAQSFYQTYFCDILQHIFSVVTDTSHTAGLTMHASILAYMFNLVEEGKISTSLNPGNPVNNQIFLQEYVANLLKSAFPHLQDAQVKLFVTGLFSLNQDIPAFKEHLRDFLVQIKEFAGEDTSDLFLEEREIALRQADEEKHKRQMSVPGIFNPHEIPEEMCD

T1 sequence (P52294 whole entry): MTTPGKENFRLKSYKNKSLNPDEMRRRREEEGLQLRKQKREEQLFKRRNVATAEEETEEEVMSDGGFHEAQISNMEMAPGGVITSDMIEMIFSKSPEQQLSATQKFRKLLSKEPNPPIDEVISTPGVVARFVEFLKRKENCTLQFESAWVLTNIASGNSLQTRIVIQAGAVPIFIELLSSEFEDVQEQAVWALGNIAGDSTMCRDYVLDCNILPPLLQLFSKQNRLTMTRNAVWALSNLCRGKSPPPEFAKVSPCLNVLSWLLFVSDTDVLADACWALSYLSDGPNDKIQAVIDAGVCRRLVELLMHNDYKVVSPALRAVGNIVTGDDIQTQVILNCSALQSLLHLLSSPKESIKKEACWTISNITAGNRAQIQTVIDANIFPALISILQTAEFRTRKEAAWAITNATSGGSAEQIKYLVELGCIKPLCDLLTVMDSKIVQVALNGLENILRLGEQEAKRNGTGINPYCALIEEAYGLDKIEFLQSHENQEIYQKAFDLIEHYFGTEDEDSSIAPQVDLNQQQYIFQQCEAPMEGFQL

## RQIKIWFQNRRMKWKK [Pen]
[1]
  effect of peptide on HCV protein-IPO5 interaction (in words): do not interfere with IPOA5, IPO5 or XPO1 binding
[2]
  effect of peptide on HCV protein-IPOA5 interaction (in words): do not interfere with IPOA5, IPO5 or XPO1 binding
[3]
  effect of peptide on HCV protein-XPO1 interaction (in words), ELISA: do not interfere with IPOA5, IPO5 or XPO1 binding
JFH-1 HCV [4]; Pen peptide 100 µM, time of addition experiment
  effect on infection (in words): had no effect on infection

## PKTKRKVRQIKIWFQNRRMKWKK [SV40 mut NLS, reference compound]
IPOA5
  binding to IPOA5 (in words): does not bind IPOA5
[1]
  effect of peptide on HCV protein-IPO5 interaction (in words): do not interfere with IPOA5, IPO5 or XPO1 binding
[2]
  effect of peptide on HCV protein-IPOA5 interaction (in words): do not interfere with IPOA5, IPO5 or XPO1 binding
[3]
  effect of peptide on HCV protein-XPO1 interaction (in words), ELISA: do not interfere with IPOA5, IPO5 or XPO1 binding
HEK293T cells
  Localization Cytoplasmic: +++
  Localization Nuclear: −

## CCC(=C/[C@H](C)C/C=C/C(C)=C/[C@@H](C)C(=O)[C@@H](C)[C@H](O)[C@@H](C)C/C(C)=C/C(=O)O)/C=C/[C@@H]1OC(=O)C=C[C@@H]1C [LMB, Leptomycin B]
JFH-1 HCV [5]
  time at which the inhibitory effect on HCV was lost: 8 h post infection

## CC[C@H](C)[C@H](NC(=O)[C@H](CC(C)C)NC(=O)[C@H](CCCNC(=N)N)NC(=O)[C@H](C)NC(=O)[C@H](CC(C)C)NC(=O)[C@H](Cc1ccccc1)NC(=O)[C@H](CC(C)C)NC(=O)[C@H](CCCCN)NC(=O)[C@H](Cc1ccc(O)cc1)NC(=O)[C@H](Cc1c[nH]cn1)NC(=O)[C@@H]1CCCN1C(=O)[C@H](CO)NC(=O)[C@H](CC(C)C)NC(=O)[C@@H](NC(=O)[C@H](CC(C)C)NC(=O)[C@H](CC(C)C)NC(=O)[C@@H](NC(=O)[C@@H](N)CC(C)C)[C@@H](C)CC)[C@@H](C)O)C(=O)N[C@@H](Cc1c[nH]c2ccccc12)C(=O)N[C@@H](Cc1c[nH]c2ccccc12)C(=O)N[C@@H](CC(C)C)C(=O)N[C@@H](CCC(N)=O)C(=O)N[C@@H](Cc1ccc(O)cc1)C(=O)N[C@@H](Cc1ccccc1)C(=O)N[C@H](C(=O)N[C@H](C(=O)N[C@@H](CCCNC(=N)N)C(=O)N[C@@H](CCC(N)=O)C(=O)N[C@H](C(=O)N[C@@H](CCCCN)C(=O)N[C@H](C(=O)N[C@@H](Cc1c[nH]c2ccccc12)C(=O)N[C@@H](Cc1ccccc1)C(=O)N[C@@H](CCC(N)=O)C(=O)N[C@@H](CC(N)=O)C(=O)N[C@@H](CCCNC(=N)N)C(=O)N[C@@H](CCCNC(=N)N)C(=O)N[C@@H](CCSC)C(=O)N[C@@H](CCCCN)C(=O)N[C@@H](Cc1c[nH]c2ccccc12)C(=O)N[C@@H](CCCCN)C(=O)N[C@@H](CCCCN)C(=O)O)[C@@H](C)CC)[C@@H](C)CC)[C@@H](C)O)[C@@H](C)CC [NS2 NES]
XPO1
  Kd: 79.9 ± 25.6 nM

## COc1nc(N)nc2c1ncn2[C@@H]1O[C@H](COP(=O)(N[C@@H](C)C(=O)OCC(C)(C)C)Oc2cccc3ccccc23)[C@@H](O)[C@@]1(C)O (stereo partly shown) [BMS-986094]
JFH-1 HCV [4]; Huh7.5, JFH-1, 4 h at 4°C then 37°C, added at 2 h intervals, % NS5A-positive cells at 72 h PTS, Ezetimibe 30 µM, LMB 18 nM, BMS-986094 10 nM, DGAT 1 inhibitor 10 nM, n = 3
  time of addition at which the ability to inhibit HCV infection is lost: 10–24 h PTS
